From ChEMBL document CHEMBL4732126, “Design, synthesis, and biodistribution studies of new analogues of marine alkaloids: Potent in vitro and in vivo fungicidal agents against Candida spp” (Eur J Med Chem, 2021)

How the values were obtained:
[1] = Toxicity in iv dosed mouse measured for 24 hrs; assay type: organism-based; settings: in vivo
[2] = Toxicity in po dosed mouse measured for 24 hrs; assay type: organism-based; settings: in vivo

With `COc1cc2c(cc1OC)[C@@H]1N(C)Cc3c(cc(OC)c4c3OCO4)[C@]1(C)[C@H](O)C2` the LD50 at 24 h [1] was 41.6 mg/kg and the LD50 at 24 h [2] was 800 mg/kg.
